Data: the supplement of paper PMC10307832

Key:
Assay in all cases: relative viability (nuclei count vs DMSO), 5 days (fraction); higher = more cells survive
[1] = tested on: NCI-H1793
Outline: (§1)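 A single step with final 0.05% Triton X-100, 1% formaldehyde and 1 ug/ml Hoechst fixed the cells and stained nuclei 5 days after treatment. Lung cancer cell lines in 1536-well plates had been treated by pin tool the day after seeding with one drug alone or a fixed anchor-drug dose plus five library-drug doses (not always all listed) in √10 steps, and nuclei were counted on 4× images. Relative viability is the ratio of nuclei in treated wells to nuclei in vehicle wells, taken as the median of duplicate plates.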

[2] = tested on: SW 1573
Outline: as §1

[3] = tested on: NCI-H441
Outline: as §1

[4] = tested on: NCI-H2347
Outline: as §1

[5] = tested on: NCI-H2342
Outline: as §1

[6] = tested on: NCI-H2009
Outline: as §1

[7] = tested on: HCC-15
Outline: as §1

[8] = tested on: EPLC-272H
Outline: as §1

[9] = tested on: NCI-H358
Outline: as §1

[10] = tested on: UMC-11
Outline: as §1

[11] = tested on: NCI-H322M
Outline: as §1

[12] = tested on: NCI-H647
Outline: as §1

[13] = tested on: A-427
Outline: as §1

[14] = tested on: NCI-H1915
Outline: as §1

[15] = tested on: LK-2
Outline: as §1

[16] = tested on: NCI-H1944
Outline: as §1

[17] = tested on: ABC-1
Outline: as §1

[18] = tested on: NCI-H838
Outline: as §1

[19] = tested on: NCI-H2023
Outline: as §1

[20] = tested on: RERF-LC-KJ
Outline: as §1

[21] = tested on: NCI-H1734
Outline: as §1

[22] = tested on: LC-2-ad
Outline: as §1

`CN1CCN(CCOc2cc(OC3CCOCC3)c3c(Nc4c(Cl)ccc5c4OCO5)ncnc3c2)CC1` [Saracatinib] + COc1cc2c(Oc3ccc(NC(=O)C4(C(=O)Nc5ccc(F)cc5)CC4)cc3F)ccnc2cc1OCCCN1CCOCC1 [Foretinib] (partner 0.25 µM) was tested, and the relative viability ([1]; first compound 0.02 µM) was 0.685, the relative viability ([1]; first compound 0.6325 µM) was 0.777 and the relative viability ([1]; first compound 2 µM) was 0.454. It also gave a relative viability ([2]; first compound 0.02 µM) of 0.895, a relative viability ([2]; first compound 0.2 µM) of 0.711 and a relative viability ([2]; first compound 0.6325 µM) of 1.14. It also gave a relative viability ([2]; first compound 2 µM) of 0.792, a relative viability ([3]; first compound 0.02 µM) of 1.04 and a relative viability ([3]; first compound 0.2 µM) of 0.985. It also gave a relative viability ([3]; first compound 0.6325 µM) of 1.08, a relative viability ([3]; first compound 2 µM) of 1.13 and a relative viability ([4]; first compound 0.02 µM) of 1.32. For the same compound, the relative viability ([4]; first compound 0.2 µM) was 0.852, the relative viability ([4]; first compound 0.6325 µM) was 0.469 and the relative viability ([4]; first compound 2 µM) was 0.712. It also gave a relative viability ([5]; first compound 0.02 µM) of 0.84, a relative viability ([5]; first compound 0.2 µM) of 0.856 and a relative viability ([5]; first compound 0.6325 µM) of 1.11. It also gave a relative viability ([5]; first compound 2 µM) of 0.925, a relative viability ([6]; first compound 0.02 µM) of 1.22 and a relative viability ([6]; first compound 0.2 µM) of 1.14. For the same compound, the relative viability ([6]; first compound 0.6325 µM) was 0.951, the relative viability ([6]; first compound 2 µM) was 1.03 and the relative viability ([7]; first compound 0.02 µM) was 1.14. The relative viability ([7]; first compound 0.2 µM) was 0.975, the relative viability ([7]; first compound 0.6325 µM) was 1.12 and the relative viability ([7]; first compound 2 µM) was 1.05. For the same compound, the relative viability ([8]; first compound 0.02 µM) was 0.403, the relative viability ([8]; first compound 0.2 µM) was 0.73 and the relative viability ([8]; first compound 0.6325 µM) was 0.646. For the same compound, the relative viability ([8]; first compound 2 µM) was 0.435, the relative viability ([9]; first compound 0.02 µM) was 0.761 and the relative viability ([9]; first compound 0.2 µM) was 0.534. For the same compound, the relative viability ([9]; first compound 0.6325 µM) was 0.421, the relative viability ([9]; first compound 2 µM) was 0.213 and the relative viability ([10]; first compound 0.02 µM) was 0.977. For the same compound, the relative viability ([10]; first compound 0.6325 µM) was 0.982, the relative viability ([10]; first compound 2 µM) was 0.734 and the relative viability ([11]; first compound 0.02 µM) was 1.01. For the same compound, the relative viability ([11]; first compound 0.2 µM) was 0.921, the relative viability ([11]; first compound 0.6325 µM) was 0.826 and the relative viability ([11]; first compound 2 µM) was 0.403. For the same compound, the relative viability ([12]; first compound 0.02 µM) was 0.997, the relative viability ([12]; first compound 0.2 µM) was 1.14 and the relative viability ([12]; first compound 0.6325 µM) was 1.04. The relative viability ([12]; first compound 2 µM) was 1.12, the relative viability ([13]; first compound 0.02 µM) was 1.09 and the relative viability ([13]; first compound 0.2 µM) was 1.09. The relative viability ([13]; first compound 0.6325 µM) was 1.07, the relative viability ([13]; first compound 2 µM) was 0.99 and the relative viability ([14]; first compound 0.02 µM) was 1.05. For the same compound, the relative viability ([14]; first compound 0.2 µM) was 1.05, the relative viability ([14]; first compound 0.6325 µM) was 1.12 and the relative viability ([14]; first compound 2 µM) was 0.96. It also gave a relative viability ([15]; first compound 0.02 µM) of 0.997, a relative viability ([15]; first compound 0.2 µM) of 1.09 and a relative viability ([15]; first compound 0.6325 µM) of 1.41. For the same compound, the relative viability ([15]; first compound 2 µM) was 0.537, the relative viability ([16]; first compound 0.02 µM) was 0.868 and the relative viability ([16]; first compound 0.6325 µM) was 0.935. It also gave a relative viability ([16]; first compound 2 µM) of 0.549, a relative viability ([17]; first compound 0.02 µM) of 1.08 and a relative viability ([17]; first compound 0.2 µM) of 0.975. It also gave a relative viability ([17]; first compound 0.6325 µM) of 0.998, a relative viability ([17]; first compound 2 µM) of 1.01 and a relative viability ([18]; first compound 0.02 µM) of 1.05. For the same compound, the relative viability ([18]; first compound 0.2 µM) was 0.908, the relative viability ([18]; first compound 0.6325 µM) was 0.938 and the relative viability ([18]; first compound 2 µM) was 0.916. It also gave a relative viability ([19]; first compound 0.02 µM) of 0.953, a relative viability ([19]; first compound 0.2 µM) of 0.873 and a relative viability ([19]; first compound 0.6325 µM) of 0.656. The relative viability ([19]; first compound 2 µM) was 0.531, the relative viability ([20]; first compound 0.02 µM) was 0.895 and the relative viability ([20]; first compound 0.2 µM) was 0.855. For the same compound, the relative viability ([20]; first compound 0.6325 µM) was 0.917, the relative viability ([20]; first compound 2 µM) was 0.877 and the relative viability ([21]; first compound 0.02 µM) was 0.852. It also gave a relative viability ([21]; first compound 0.6325 µM) of 0.805, a relative viability ([21]; first compound 2 µM) of 0.605 and a relative viability ([22]; first compound 0.02 µM) of 0.85. The relative viability ([22]; first compound 0.2 µM) was 0.812, the relative viability ([22]; first compound 0.6325 µM) was 0.934 and the relative viability ([22]; first compound 2 µM) was 0.658.
